# Data from paper PMC5650142, “GPR40 partial agonists and AgoPAMs: Differentiating effects on glucose and hormonal secretions in the rodent” (PLoS ONE, 2017).
# Where “and” joins values, the source holds several entries; their conditions need not be identical. Equal entries are not always repeated. Where two headings read alike, the source gives them in different places.
# Key:
# rat GPR40 = target: T1, rat GPR40 (Rattus norvegicus, UniProt Q8K3T4); test: Rat GPR40 IP1 accumulation assay; assay type: cell-based; settings: for Efficacy (% Activation), Rat: maximal % activity vs in-house partial agonist control
# T1 construct: expressed in transfected cells; host or cells: CHO-K1 (methods)
# In short: (§1)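 IP1 accumulation is measured by HTRF after 60 min compound stimulation at room temperature in LiCl (50 mM)-containing buffer. Compounds run in ½-log dilutions from a final top concentration of 10 μM or 1 μM. Cells are hGPR40/HEK293, mGPR40/CHO-K1 and rGPR40/CHO-K1. Activity is scaled between DMSO and a partial allosteric agonist and fitted to a 4-parameter curve for EC50 and maximum.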
# mouse GPR40 = target: T2, mouse GPR40 (Mus musculus, UniProt Q76JU9); test: Mouse GPR40 IP1 accumulation assay; assay type: cell-based; settings: for Efficacy (% Activation), Mouse: maximal % activity vs in-house partial agonist control
# T2 construct: expressed in transfected cells; host or cells: CHO-K1 (methods)
# In short: as §1
# human GPR40 [1] = target: T3, human GPR40 (Homo sapiens, UniProt O14842); test: Human GPR40 IP1 accumulation assay; assay type: cell-based; set-up: expressed in transfected cells; settings: for Efficacy (% Activation), Human: maximal % activity vs in-house partial agonist control
# Experimental: Stable cell lines expressing human GPR40 (hGPR40/HEK293), mouse GPR40 (mGPR40/CHO-K1), and rat GPR40 (rGPR40/CHO-K1) were cultured in DMEM media supplemented with 10% FBS, glutamine, non-essential amino acids, and penicillin/streptomycin. hGPR40/HEK293 & mGPR40/CHO-K1 cell media was supplemented with […] G418 (Life Technologies), while rGPR40/CHO-K1 cells were grown in […] blasticidin plus […] hygromycin (Life Technologies). Cell stocks were maintained and grown in a sub-confluent state using standard cell culture procedures. The day before the experiment, the cells were harvested with non-enzymatic cell dissociation buffer and re-suspended in DMEM supplemented with 10% FBS, glutamine, non-essential amino acids, penicillin/streptomycin at 0.15, 0.2 and 0.3 million cells per ml for human, mouse, and rat GPR40, respectively. […] The seeded plates were incubated overnight at 37 C.
# On the day of the experiment, the growth media was removed from the assay by gently patting the assay plates on an absorbent sheet and 10 μl of IP1 stimulation buffer (Cis Bio IP-one Tb HTRF kit) supplemented with 50 mM LiCl is added to each well. Test compounds dissolved in DMSO were serially diluted in ½ log increments starting from 2 mM or 0.2 mM and 50 nl of the compound dilution was acoustically added to each well (final starting concentration 10 μM or 1 μM). Plates were then incubated for 60 minutes at room temperature and 10 μl of detection buffer (prepared as described in the Tb kit) is added to each well. The plates are then incubated one additional hour at room temperature. […] For each assay, a standard curve plate in which IP1 is titrated is also included. […] The percent activity at each concentration of test compound is determined using 0% activation (basal activity) determined in those wells that contain DMSO alone, while 100% activity is determined in wells that contained a concentration of a partial allosteric agonist know to activate GPR40. The % activity is then plotted versus the concentration of test compound and the dose response curve fitted to a standard 4-parameter non-linear regression model using a custom in-house developed software package (Merck & Co., Inc., MRL, Kenilworth, NJ, USA). Maximal % activity and EC50 are then determined for each test compound.
# human GPR40 [2] = target: T3, human GPR40; test: GPR40 binding assay, partial agonist tracer [3H]L358; set-up: expressed in transfected cells; host or cells: CHO / CHO-K1 cells, membrane preparation; settings: for % Bound Normalized to 100 / %Bound: radioligand L-001533358;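 as to %Bound: 100% is tracer binding with DMSO alone and 0% is full displacement by a standard compound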
# Experimental: Two small molecule tracers, the partial agonist [3H][…] and the AgoPAM [3H]25, are used to measure compound affinity at each site as described previously. Because of the allosteric coupling of the two sites and the nature of the assay, addition of a compound will either displace (binds to same site) or augment (binds to allosterically coupled site) radiotracer. Membranes expressing GPR40 were prepared from CHO cells stably expressing human GPR40. […] Sigma P8830) and were homogenized in 50 ml aliquots with a motor-driven glass Dounce homogenizer, 15 strokes at 1900 rpm on wet ice, repeating once. Homogenates were centrifuged at 2200 rpm for 10 min at 4°C. Supernatants were carefully removed and pooled. Homogenization and centrifugation were repeated until the debris pellet was translucent to maximize membrane recovery. Supernatants were then centrifuged at […] rpm for 20 min. at 4°C. […] Protein concentration was determined by Pierce BCA kit. […] The beads and membrane mixture is then vigorously mixed for 30 minutes at room temperature prior to addition to the assay. […] Next, 15 μl of the radioligand and 35 μl of the beads/membranes solution is added to each well. The assay plates are then sealed and incubated for 30 minutes at room temperature on an orbital shaker. The plates are allowed to settle for 16 hours and then counted on a TopCount scintillation counter (PE). […] Maximal % bound and IC50 are then determined for each test compound. 5 μg/well membrane together with 200 μg/well of PVT WGA SPA beads (GE #RPNG-0001) were suspended in a white 96 well plate with a final concentration of 50 μl/well in assay buffer (50 mM Tris, 10 mM MgCl2, and 2 mM EDTA). […] The plate is briefly mixed and incubated for 3-18 h at room temperature, before it is read on a MicroBeta plate counter (Perkin Elmer, MS, USA).
# [3] = mean ± SD, n = 2–20, IP accumulation, read-out: Potency [EC50, nM] ± SD, Rat
# [4] = mean ± SD, n = 2–20, IP accumulation, read-out: Potency [EC50, nM] ± SD, Mouse
# [5] = mean ± SD, n = 2–20, IP accumulation, read-out: Potency [EC50, nM] ± SD, Human
# T1 sequence (Q8K3T4 whole entry): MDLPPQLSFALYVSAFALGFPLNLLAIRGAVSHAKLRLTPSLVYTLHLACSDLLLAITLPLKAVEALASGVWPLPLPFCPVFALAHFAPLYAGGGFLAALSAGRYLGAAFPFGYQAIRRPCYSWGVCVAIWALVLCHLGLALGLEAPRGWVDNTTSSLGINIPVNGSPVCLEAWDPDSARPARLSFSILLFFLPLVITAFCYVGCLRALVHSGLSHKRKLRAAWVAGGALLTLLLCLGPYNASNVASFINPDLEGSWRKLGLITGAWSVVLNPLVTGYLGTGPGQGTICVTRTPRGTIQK
# T2 sequence (Q76JU9 whole entry): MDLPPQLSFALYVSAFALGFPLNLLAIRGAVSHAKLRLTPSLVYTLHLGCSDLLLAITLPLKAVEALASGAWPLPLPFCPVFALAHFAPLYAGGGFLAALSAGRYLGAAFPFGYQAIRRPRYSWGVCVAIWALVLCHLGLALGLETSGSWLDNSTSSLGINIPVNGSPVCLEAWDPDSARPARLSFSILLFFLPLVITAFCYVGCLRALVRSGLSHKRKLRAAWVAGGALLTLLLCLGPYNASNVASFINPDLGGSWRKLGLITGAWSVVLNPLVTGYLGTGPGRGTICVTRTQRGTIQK
# T3 sequence (O14842 whole entry): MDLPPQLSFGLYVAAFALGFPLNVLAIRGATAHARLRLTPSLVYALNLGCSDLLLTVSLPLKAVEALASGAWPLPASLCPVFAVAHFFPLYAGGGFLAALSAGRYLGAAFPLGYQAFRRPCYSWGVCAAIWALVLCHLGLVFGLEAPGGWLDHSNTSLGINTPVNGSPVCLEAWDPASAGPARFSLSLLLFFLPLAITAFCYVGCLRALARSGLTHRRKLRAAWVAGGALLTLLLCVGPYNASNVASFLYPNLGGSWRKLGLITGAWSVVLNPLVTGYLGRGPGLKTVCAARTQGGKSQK
smiles,measurement,setting,value
C[C@H](C(=O)O)[C@H](c1ccc2c(c1)O[C@H](C1CN(Cc3cc(C(F)(F)F)ccc3C(F)(F)F)C1)CC2)C1CC1 [AP3],Rat GPR40 Receptor Activation (%),rat GPR40; dose 1.50E-11 M,-10%
same,Rat GPR40 Receptor Activation (%),rat GPR40; dose 1.55E-08 M,330%
same,Rat GPR40 Receptor Activation (%),rat GPR40; dose 2.43E-10 M,24%
same,Rat GPR40 Receptor Activation (%),rat GPR40; dose 2.49E-07 M,412%
same,Rat GPR40 Receptor Activation (%),rat GPR40; dose 3.89E-09 M,269%
same,Rat GPR40 Receptor Activation (%),rat GPR40; dose 4.00E-12 M,-6.43%
same,Rat GPR40 Receptor Activation (%),rat GPR40; dose 6.10E-11 M,-0.311%
same,Rat GPR40 Receptor Activation (%),rat GPR40; dose 6.22E-08 M,389%
same,Rat GPR40 Receptor Activation (%),rat GPR40; dose 9.72E-10 M,121%
same,Rat GPR40 Receptor Activation (%),rat GPR40; dose 9.95E-07 M,389%
same,"%Act, Rat GPR40, Functional Assay",rat GPR40; individual determinations,265% and 529% and 336% and 568% and 267% and 374% and 399% and 444% and 459% and 365% and 466% and 382%
same,EC50,"rat GPR40; individual determinations, read-out: EC50 (nM), Rat GPR40, Functional Assay",0.79 nM and 0.8 nM and 0.9 nM and 1.01 nM and 1.46 nM and 1.5 nM and 2.03 nM and 2.24 nM and 2.29 nM and 0.57 nM and 0.7 nM and 0.75 nM
same,"Efficacy (% Activation), Rat",rat GPR40,(405%)
same,EC50,rat GPR40; [3],1.3 ± 0.63 nM
same,Mouse GPR40 Receptor Activation (%),mouse GPR40; dose 1.50E-11 M,-3.27%
same,Mouse GPR40 Receptor Activation (%),mouse GPR40; dose 1.55E-08 M,446%
same,Mouse GPR40 Receptor Activation (%),mouse GPR40; dose 2.43E-10 M,50%
same,Mouse GPR40 Receptor Activation (%),mouse GPR40; dose 2.49E-07 M,525%
same,Mouse GPR40 Receptor Activation (%),mouse GPR40; dose 3.89E-09 M,371%
same,Mouse GPR40 Receptor Activation (%),mouse GPR40; dose 4.00E-12 M,-5%
same,Mouse GPR40 Receptor Activation (%),mouse GPR40; dose 6.10E-11 M,5%
same,Mouse GPR40 Receptor Activation (%),mouse GPR40; dose 6.22E-08 M,431%
same,Mouse GPR40 Receptor Activation (%),mouse GPR40; dose 9.72E-10 M,174%
same,"%Act, Mouse GPR40, Functional Assay",mouse GPR40; individual determinations,596% and 682% and 213% and 314% and 487% and 456% and 680% and 434% and 501% and 418%
same,EC50,"mouse GPR40; individual determinations, read-out: EC50 (nM), Mouse GPR40, Functional Assay",0.64 nM and 0.73 nM and 1.06 nM and 1.33 nM and 1.52 nM and 2.22 nM and 2.5 nM and 0.46 nM and 0.58 nM and 0.59 nM
same,"Efficacy (% Activation), Mouse",mouse GPR40,(478%)
same,EC50,mouse GPR40; [4],1.2 ± 0.72 nM
same,Human GPR40 Receptor Activation (%),human GPR40 [1]; dose 1.50E-11 M,-1.6%
same,Human GPR40 Receptor Activation (%),human GPR40 [1]; dose 1.55E-08 M,280%
same,Human GPR40 Receptor Activation (%),human GPR40 [1]; dose 2.43E-10 M,54%
same,Human GPR40 Receptor Activation (%),human GPR40 [1]; dose 2.49E-07 M,306%
same,Human GPR40 Receptor Activation (%),human GPR40 [1]; dose 3.89E-09 M,288%
same,Human GPR40 Receptor Activation (%),human GPR40 [1]; dose 4.00E-12 M,-5%
same,Human GPR40 Receptor Activation (%),human GPR40 [1]; dose 6.10E-11 M,7%
same,Human GPR40 Receptor Activation (%),human GPR40 [1]; dose 6.22E-08 M,328%
same,Human GPR40 Receptor Activation (%),human GPR40 [1]; dose 9.72E-10 M,183%
same,Human GPR40 Receptor Activation (%),human GPR40 [1]; dose 9.95E-07 M,328%
same,"%Act, HUMAN GPR40, Functional Assay",human GPR40 [1]; individual determinations,407% and 332% and 338% and 274% and 324% and 328% and 239% and 282% and 383% and 273%
same,EC50,"human GPR40 [1]; individual determinations, read-out: EC50 (nM), HUMAN GPR40, Functional Assay",0.32 nM and 0.43 nM and 0.46 nM and 0.47 nM and 0.73 nM and 0.8 nM and 0.91 nM and 0.19 nM and 0.24 nM and 0.27 nM
same,"Efficacy (% Activation), Human",human GPR40 [1],(318%)
same,EC50,human GPR40 [1]; [5],0.48 ± 0.25 nM
same,% Bound Normalized to 100,human GPR40 [2]; dose 0.318285 nM,82.24%
same,%Bound,human GPR40 [2]; dose 0.318285 nM,88.22%
same,% Bound Normalized to 100,human GPR40 [2]; dose 1.00578 nM,93.26%
same,%Bound,human GPR40 [2]; dose 1.00578 nM,99.24%
same,% Bound Normalized to 100,human GPR40 [2]; dose 3.17827 nM,115.15%
same,%Bound,human GPR40 [2]; dose 3.17827 nM,121.13%
same,% Bound Normalized to 100,human GPR40 [2]; dose 10.0433 nM,125.44%
same,%Bound,human GPR40 [2]; dose 10.0433 nM,131.41%
same,% Bound Normalized to 100,human GPR40 [2]; dose 31.7369 nM,126.76%
same,%Bound,human GPR40 [2]; dose 31.7369 nM,132.74%
same,% Bound Normalized to 100,human GPR40 [2]; dose 100.289 nM,126.17%
same,%Bound,human GPR40 [2]; dose 100.289 nM,132.15%
same,% Bound Normalized to 100,human GPR40 [2]; dose 316.912 nM,135.28%
same,%Bound,human GPR40 [2]; dose 316.912 nM,141.26%
same,% Bound Normalized to 100,human GPR40 [2]; dose 1001.44 nM,137.19%
same,%Bound,human GPR40 [2]; dose 1001.44 nM,143.17%
same,% Bound Normalized to 100,human GPR40 [2]; dose 3164.56 nM,164.81%
same,%Bound,human GPR40 [2]; dose 3164.56 nM,170.79%
same,% Bound Normalized to 100,human GPR40 [2]; dose 10000 nM,174.51%
same,%Bound,human GPR40 [2]; dose 10000 nM,180.49%
"O=C1NC(=O)C(C2CCOc3cc(Oc4ccc(C(F)(F)F)cc4Cl)ccc32)S1 (stereo not shown) [MK-2305, reference compound]","Efficacy (% Activation), Rat",rat GPR40,(155%)
same,EC50,rat GPR40; [3],5.2 ± 2.5 nM
same,"Efficacy (% Activation), Mouse",mouse GPR40,(157%)
same,EC50,mouse GPR40; [4],2.6 ± 0.8 nM
same,"Efficacy (% Activation), Human",human GPR40 [1],(85%)
same,EC50,human GPR40 [1]; [5],24 ± 13 nM
same,"Binding Results, % in parentheses, [^3H]L-358","human GPR40 [2]; WT human GPR40, maximal % (not defined)",(108%)
same,IC50,"human GPR40 [2]; WT human GPR40, n = 2–13, read-out: Binding Results [IC50, nM], [^3H]L-358",17 ± 4.7 nM
same,binding of [^3H]L358,"human GPR40 [2]; human GPR40 membranes, competition binding",displace
